Data taken from patent US10444224B2, “Method for RNA detection and quantification” (Cornell University, priority 2011, dated 2019).

Legend:
[1] = tested on: HEK293 cells; assay: Nonspecific fluorescence activation by cellular components; assay type: cell-based; settings: 10 μM, 30 min
Description: HEK293 cells were grown on PLL-coated glass-bottom dishes (MatTek) in DMEM plus 10% FBS to ˜80% confluency. Media was removed, cells were washed twice with microscopy media (20 mM HEPES pH 7.4, 119 mM NaCl, 5 mM KCl, 2 mM CaCl2, 2 mM MgCl2, and 30 mM glucose) and then incubated for 30 min with microscopy media plus vehicle (0.2% DMSO) or 10 μM N,N-Dimethyl-4′-nitro-4-stilbenamine, thiazole orange, malachite green, or DFHBI. Live fluorescence images were then taken with a CoolSnap HQ2 CCD camera through a 40× oil objective mounted on a Nikon TE2000 microscope and analyzed with the NIS-Elements software.

[2] = tested on: HEK293 cells; assay: Cytotoxicity assay after illumination (MTT); assay type: cell-based; settings: 10 μM fluorophore, 10 min illumination
Description: HEK293 cells were grown on PLL-coated glass-bottom dishes as indicated above. At ˜80% confluency, the media was removed and cells were incubated for 30 min with fresh media alone, media plus vehicle (0.2% DMSO) or media plus 10 μM DMHBI, DFHBI or MG. Cells were then illuminated for 10 min at 37° C. with a Nikon Intensilight C-HGFIE 130 W mercury lamp with FITC (DMHBI and DFHBI) or Cy5 (malachite green) filter sets (Chroma Technology) on an inverted epifluorescence microscope. Control cells were illuminated for 10 min under identical conditions but in the absence of any fluorophore. Cells were then washed several times with media to remove fluorophores and assayed for mitochondrial activity with MTT (3-[4,5-dimethylthiazol-2-yl]-2,5-diphenyltetrazolium bromide) based cell proliferation kit (Roche) and prepared according to manufacturers instructions. MTT absorbance readings were performed at 550 nm with 650 nm absorbance used for background subtraction. Values are reported as percent change in viability compared to control samples (illumination without fluorophore or without vehicle) and each condition was repeated in triplicate and averaged.

[3] = Truncation and mutagenesis of 24-2, DFHBI fluorescence; assay type: biochemical; settings: with DFHBI
Description: Secondary structure prediction was performed using Mfold online software (Zuker, “Mfold Web Server for Nucleic Acid Folding and Hybridization Prediction,” Nucl. Acids Res. 31(13): 3406-3415 (2003), which is hereby incorporated by reference in its entirety). Mutated and truncated RNAs were created by ordering single stranded DNA templates (Integrated DNA Technologies) with the desired mutations or truncations and PCR amplifying these sequences to create double stranded DNA templates using primers which included a 5′ T7 promoter sequence. PCR products were then purified with PCR purification columns (Qiagen) and used as templates for in vitro T7 transcription reactions (Epicentre).

With `CC1=NC(=Cc2cc(F)c(O)c(F)c2)C(=O)N1C` [DFHBI, 4-(3,5-difluoro-4-hydroxybenzylidene)-1,2-dimethyl-imidazol-5-one] the “nonspecific fluorescence activation upon incubation with cells” value [1] was “does not exhibit nonspecific fluorescence activation” and the “cytotoxicity / phototoxicity upon illumination” value [2] was “negligible phototoxicity”.

B1: 24-2-min: final truncated (minimized) 24-2 sequence (nucleic acid)
chain: GACGCGACCGAAAUGGUGAAGGACGGGUCCAGUGCUUCGGCACUGUUGAGUAGAGUGUGAGCUCCGUAACUGGUCGCGUC
modifications: listed as RNA, chemistry not given here
For B1, the “fluorescence relative to full-length 24-2” value [3] was about 95%.
